Test results from patent publication US9173952B2, “Mitochondrial penetrating peptides as carriers for antimicrobials” (priority 2010, dated 2015).
Values after ≈ are worked out from the molar mass of the structure shown. “Also recorded” adds a separate entry of the source. Where two headings read alike, the source gives them in different places. Starred links: 1 amine or outer side, 2 acyl side, 3 side chain; linkers in the order of their positions; H or OH if unused. Non-standard residues stand in square brackets, D forms with d. Residues, ends and D or L forms follow the SMILES beside them. *: point of attachment. DAMPA = CN(Cc1cnc2nc(N)nc(N)c2n1)c1ccc(C(=O)*)cc1; γGlu = O=C(O)[C@H](CCC(=O)[*:2])N[*:1]; Cha = N[C@@H](CC1CCCCC1)C(=O)O

Assays:
HeLa cells [1] = experiment: Measurement of mitochondrial membrane potential (JC-1, flow cytometry); assay type: cell-based, human; conditions: Mtx-Fxr3 16 μM 72 hours, FCCP 10 μM 6 minutes
Method: HeLa cells were seeded in at 6,250 cells per well in 24 well plates. […] Carbonyl cyanide 4-(trifluoromethoxy)phenylhydrazone (FCCP) was added at 10 μM for 6 minutes prior to analysis to disrupt the mitochondrial membrane potential. The mitchondrial membrane potential sensitive dye JC-1 (Invitrogen, Carlsbad Calif.) was added at 5 μg/mL for 10 minutes at 37° C. Cells were washed with PBS and harvested as described above. Samples were subsequently analyzed by flow cytometry on a BD FACSCanto flow cytometer (BD Biosciences) with excitation at 488 nm and emmission wavelengths of 530 nm and 585 nm collected. Ratio of these two emmission wavelengths was used to measure changes in mitochondrial membrane potential.

E. faecalis (ATCC 29212) = experiment: microbe, parasite or virus in culture; assay type: cell-based, Enterococcus faecalis
Method: (§1) Cell Culturing Conditions. HeLa cells were cultured in MEM alpha (Invitrogen, Carlsbad) supplemented with 10% (v/v) FBS at 37° C. with 5% CO2. Escherichia coli strain JW5503 from the Keio collection^12 (F−, Δ(araD-araB)567, ΔlacZ4787(:rrnB-3), λ^−, ΔtolC732:kan, rph-1, Δ(rhaD-rhaB)568, hsdR514) was grown on solid LB-agar or in LB liquid media supplemented with 50 μg/mL kanamycin at 37° C. Strains harboring the pCA24N plasmid were additionally grown with chloramphenicol at 20 μg/mL. B. subtilis was grown in LB media. S. aureus and E. faecalis were grown in Trypticase Soy Broth (TSB). S. pneumoniae were grown in TSB+5% defibrinated sheep's blood at 37° C. in an atmosphere of 5% CO2.
(§2) Minimum inhibitory concentration (MIC) determinations were performed to characterize the effect of each compound on bacterial growth. Briefly, overnight cultures were subcultured at 1:100 and grown to and OD600 of 0.5. Cells were Diluted 1:10000 into fresh media with test compounds. Cells were incubated for 16 hours at 37° C. Growth was monitored at OD600. Multi-copy suppression of compound toxicity was accomplished by inducing FolA (DHFR) expression from the pCA24N plasmid with 0.1 mM IPTG prior the incubation with test compounds. Compound toxicity was assessed in LB media for E. coli. […]

B. subtilis = experiment: microbe, parasite or virus in culture; assay type: cell-based, Bacillus subtilis
Method: as §1, §2

[2] = tested on: S. pneumoniae (ATCC 49619); experiment: microbe, parasite or virus in culture; assay type: cell-based, Streptococcus pneumoniae
Method: Minimum inhibitory concentration (MIC) determinations were performed to characterize the effect of each compound on bacterial growth. Briefly, overnight cultures were subcultured at 1:100 and grown to and OD600 of 0.5. Cells were Diluted 1:10000 into fresh media with test compounds. Cells were incubated for 16 hours at 37° C. Growth was monitored at OD600. […] For S. aureus B. subtilis, S. pneumonaie, and E. faecalis the defined media Mem-alpha minus nucleotides (Invitrogen, Carlsbad Calif.) was used to control for variability in thymidine content of undefined media. The final dilution into media was at 1:2000 for S. pneumoniae, and E. faecalis. 3% laked horse blood was added to the media for S. pnemoniae.

S. aureus (ATCC 29213) = experiment: microbe, parasite or virus in culture; assay type: cell-based, Staphylococcus aureus
Method: as §1, §2

MRSA (ATCC BAA-1720) = experiment: microbe, parasite or virus in culture; assay type: cell-based, methicillin-resistant S. aureus
Method: as §1, §2

E. coli strain JW5503 = experiment: microbe, parasite or virus in culture; assay type: cell-based, Escherichia coli
Method: as §1, §2

[3] = Analysis of cell toxicity (HeLa), CCK-8 viability; assay type: cell-based; conditions: human, HeLa cells, 72-hour incubation, read-out: LD50 (50% lethal dose, concentration where 50% toxicity is observed)
Method: HeLa cells were cultured as described above. Cells were seeded in 96-well flat bottom tissue culture plates (Starsted, N.C.) at a density of 1500 cells per well. The culture media was removed and cells were washed with MEM-alpha (minus nucleotides). […] Cellular viability was analyzed after the indicated times using the CCK-8 viability dye (Dojindo, Rockville, Md.) at an absorbance of 450 nm.

HeLa cells [4] = experiment: Measurement of cellular ATP levels; assay type: cell-based, human; conditions: Mtx-Fxr3 16 μM 16 hours, rotenone 100 nM 1 hour
Method: HeLa cells were seeded at a density of 50,000 cells per well one day prior to experiments. […] After treatment, cells were washed with PBS, harvested with trypsin/EDTA for 7 min at 37° C. Complete media was added to terminate the reaction and cells were collected by centrifugation (8 min at 700×g) and washed with PBS. Cells were lysed with 40 μl 1% TCA/4 mM EDTA for 20 minutes on ice, followed by 20 μl 1M Tris buffer pH 7.4. ATP levels were assessed using the ATP Bioluminescent Assay Kit (Sigma, Saint Louis Mich.) and a Spectramax M5 plate reader (Molecular Devices, Sunnyvale Calif.).

## N#CC(C#N)=NNc1ccc(OC(F)(F)F)cc1 [FCCP, Carbonyl cyanide 4-(trifluoromethoxy)phenylhydrazone, reference compound]
HeLa cells [1]
  effect on mitochondrial membrane potential: significant decrease in membrane potential

## N=C(N)NCCC[C@@H](NC(=O)[C@H](CC1CCCCC1)NC(=O)[C@@H](CCCNC(=N)N)NC(=O)[C@H](CC1CCCCC1)NC(=O)[C@@H](CCCNC(=N)N)NC(=O)[C@@H](N)CC1CCCCC1)C(N)=O [Fxr3, FxrFxrFxr] (H-[Cha][dR][Cha][dR][Cha][dR]-NH2; N-terminus assumed)
E. faecalis (ATCC 29212); ATCC 29212
  MIC: > 16 µM
B. subtilis
  MIC: > 16 µM
[2]; ATCC 49619
  MIC: > 16 µM
S. aureus (ATCC 29213); ATCC 29213
  MIC: > 32 µM
MRSA (ATCC BAA-1720); ATCC BAA-1720
  MIC: > 32 µM

## CN(Cc1cnc2nc(N)nc(N)c2n1)c1ccc(C(=O)N[C@@H](CCC(=O)O)C(=O)O)cc1 [Mtx, methotrexate, reference compound]
E. coli strain JW5503; Escherichia coli, JW5503, 16 h, read-out: MIC (minimum inhibitory concentration)
  MIC: > 32 µM
E. faecalis (ATCC 29212); Enterococcus faecalis, ATCC29212, E. faecalis (ATCC 29212), Mem-alpha minus nucleotides
  MIC: 4 µM (≈ 1.82 µg/mL)
B. subtilis; Bacillus subtilis, B. subtilis, Mem-alpha minus nucleotides
  MIC: > 16 µM
[2]; Streptococcus pneumoniae, ATCC49619, S. pneumoniae (ATCC 49619), Mem-alpha minus nucleotides, 3% laked horse blood
  MIC: 0.5 µM (≈ 0.227 µg/mL)
S. aureus (ATCC 29213); Staphylococcus aureus, ATCC29213, S. aureus (ATCC 29213), Mem-alpha minus nucleotides
  MIC: > 32 µM
MRSA (ATCC BAA-1720); Staphylococcus aureus, MRSA (ATCC BAA-1720)
  MIC: > 32 µM

## CN(Cc1cnc2nc(N)nc(N)c2n1)c1ccc(C(=O)N[C@@H](CCC(=O)N[C@@H](CC2CCCCC2)C(=O)N[C@H](CCCNC(=N)N)C(=O)N[C@@H](CC2CCCCC2)C(=O)N[C@H](CCCNC(=N)N)C(=O)N[C@@H](CC2CCCCC2)C(=O)N[C@H](CCCNC(=N)N)C(N)=O)C(=O)O)cc1 [Mtx-Fxr3, Mtx-FxrFxrFxr] ({DAMPA-γGlu}-[Cha][dR][Cha][dR][Cha][dR]-NH2)
E. coli strain JW5503; strain JW5503, 16 h
  MIC (minimum inhibitory concentration): 0.5 µM (≈ 0.691 µg/mL)
[3]
  CC50 at 72 h: > 16 µM
HeLa cells [1]
  effect on mitochondrial membrane potential: not perturb the mitochondrial membrane potential; also recorded: did not affect
HeLa cells [4]
  effect on cellular ATP levels: did not result in a decrease in cellular ATP levels; also recorded: did not affect
